In patent EP4603105A1, “PHARMACEUTICAL COMPOSITION CONTAINING CYCLIC COMPOUND HAVING SELECTIVE KRAS INHIBITORY EFFECT AGAINST HRAS AND NRAS” (CHUGAI SEIYAKU KABUSHIKI KAISHA, priority 2022, dated 2024):
Where a SMILES comes first, the peptide text is derived from it. Bridges are numbered along the chain shown (N, C = ends). [ ]: non-standard residue; d: D form. The star is where a group is joined. hPhe(3-Cl-4-CF3) = N[C@@H](CCc1ccc(C(F)(F)F)c(Cl)c1)C(=O)O; NPrPhe(4-CF3) = CCCN[C@@H](Cc1ccc(C(F)(F)F)cc1)C(=O)O; NEtPhe(4-Me) = CCN[C@@H](Cc1ccc(C)cc1)C(=O)O; NMeGly(cPent) = CN[C@H](C(=O)O)C1CCCC1; Hyp = O=C(O)[C@@H]1C[C@@H](O)CN1; NMeD = CN[C@@H](CC(=O)O)C(=O)O; NMeL = CN[C@@H](CC(C)C)C(=O)O; Azetidin(1-yl) = C1CN(*)C1; Morpholide = C1CN(*)CCO1; NMeA = CN[C@@H](C)C(=O)O; NMeAib = CNC(C)(C)C(=O)O; Nle = CCCC[C@H](N)C(=O)O; Piperidide = C1CCN(*)CC1; Ac5c = NC1(C(=O)O)CCCC1; Aze = O=C(O)[C@@H]1CCN1; Ac4c = NC1(C(=O)O)CCC1; Sar = CNCC(=O)O

What was measured:
HRAS wild-type protein = HRAS wild-type protein (Homo sapiens, UniProt P01112); assay: Binding to HRAS by surface plasmon resonance (SPR), KD and KD ratio to KRAS
Method in brief: (§1)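 SPR, 30°C: Avi-biotin RAS·GDP captured via Biotin CAPture (~100–300 RU); running buffer HBS pH 7.4, 1 mM DTT, 10 mM MgCl2, 0.01% Tween 20, 10 µM GDP, 4% DMSO. Single-cycle kinetics, 100 µL/min, 75 s injections; 1:1 model → KD.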

[1] = system: human lung cancer strain NCI-H441; format: cell-based
Method in brief: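 Proliferation was scored by […] measured after the reagent was added to cultures kept at 37°C in 5% carbon dioxide.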

[2] = biological target: GDP-bound NRAS wild-type protein (Homo sapiens, UniProt P01111); assay: Binding to NRAS by surface plasmon resonance (SPR), KD and KD ratio to KRAS
Method in brief: as §1

[3] = ratio of KD for HRAS wild-type protein to KD for KRAS
[4] = ratio of KD for GDP-bound NRAS wild-type protein to KD for KRAS
[5] = ratio of the KD value with respect to HRAS wild-type protein to the KD value with respect to KRAS
[6] = ratio of the KD value with respect to GDP-bound NRAS wild-type protein to the KD value with respect to KRAS

GDP-bound NRAS wild-type protein, sequence (P01111 whole entry): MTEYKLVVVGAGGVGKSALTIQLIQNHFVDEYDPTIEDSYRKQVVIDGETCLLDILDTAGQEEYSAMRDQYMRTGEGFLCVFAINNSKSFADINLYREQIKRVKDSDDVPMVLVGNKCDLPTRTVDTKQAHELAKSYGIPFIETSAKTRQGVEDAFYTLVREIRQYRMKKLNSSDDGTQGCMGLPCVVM
HRAS wild-type protein, sequence (P01112 whole entry): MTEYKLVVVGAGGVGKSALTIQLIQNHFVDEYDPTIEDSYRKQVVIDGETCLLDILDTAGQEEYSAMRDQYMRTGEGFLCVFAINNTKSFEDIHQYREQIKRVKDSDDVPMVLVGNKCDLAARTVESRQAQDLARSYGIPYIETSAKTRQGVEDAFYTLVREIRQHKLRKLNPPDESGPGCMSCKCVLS

| Structure (SMILES) | HRAS /KRAS (HRAS wild-type protein; [3]) | IC50 [1] | NRAS /KRAS [2, 4] | HRAS /KRAS (HRAS wild-type protein; [5]) | NRAS /KRAS [2, 6] | HRAS /KRAS (HRAS wild-type protein; ratio of KD value for HRAS wild-type protein to KD value for KRAS (SPR)) | NRAS /KRAS ([2]; ratio of KD value for GDP-bound NRAS wild-type protein to KD value for KRAS (SPR)) |
| --- | --- | --- | --- | --- | --- | --- | --- |
| CCO[C@@H]1C[C@H]2C(=O)NC3(CCC3)C(=O)N(C)[C@@H](C3CCCC3)C(=O)N(C)[C@H](C(=O)N(C)C)CC(=O)N(C)[C@@H](CC)C(=O)N[C@@H]([C@@H](C)CC)C(=O)N(C)CC(=O)N(C)[C@H]3CCCCN(C3=O)[C@@H](Cc3ccc(C(F)(F)F)cc3)C(=O)N(C)CC(=O)N[C@@H](CCc3ccc(Cl)c(Cl)c3)C(=O)N2C1 [PP0987] | C (A compound having a KD ratio of 0.1 or more and less than 3 is denoted as C) | 6.8 nM | C (A compound having a KD ratio of 0.1 or more and less than 3 is denoted as C) |  |  |  |  |
| CCC[C@H]1C(=O)N[C@@H]([C@@H](C)CC)C(=O)N(C)CC(=O)N(C)[C@H]2C/C=C\CCN(C2=O)[C@@H](Cc2ccc(C(F)(F)F)cc2)C(=O)N(C)CC(=O)N[C@@H](CCc2ccc(Cl)c(Cl)c2)C(=O)N2CCOC[C@H]2C(=O)NC2(CC(C)(C)C2)C(=O)N(C)[C@@H](C(CC)CC)C(=O)N(C)[C@H](C(=O)N(C)C)CC(=O)N1C [PP2920] | A (a compound having 10 or more and less than 20 is denoted as A) | 118 nM | AA (a compound having 20 or more is denoted as AA) |  |  |  |  |
| CCCC[C@@H]1NC(=O)[C@H](CCc2ccc(C(F)(F)F)c(Cl)c2)NC(=O)CN(C)C(=O)[C@H](Cc2ccc(C)cc2)N(CC)C(=O)[C@@H]2CCN2C(=O)[C@H](C)N(C)C(=O)[C@H]([C@@H](C)CC)NC(=O)[C@H](CC(C)C)N(C)C(=O)C[C@@H](C(=O)N2CCCCC2)N(C)C(=O)[C@H](CC(C)C)NC(=O)C(C)(C)N(C)C1=O [PP0048] ([NMeL]I[NMeA][Aze][NEtPhe(4-Me)][Sar][hPhe(3-Cl-4-CF3)][Nle][NMeAib]L[NMeD]-Piperidide; lactam N-11) | C (A compound having a KD ratio of 0.1 or more and less than 3 is denoted as C) | 464 nM | C (A compound having a KD ratio of 0.1 or more and less than 3 is denoted as C) |  |  |  |  |
| CCO[C@@H]1C[C@H]2C(=O)NC3(CCC(F)(F)CC3)C(=O)N(C)[C@@H](C3CCCC3)C(=O)N(C)[C@H](C(=O)N3CCOCC3)CC(=O)N(C)[C@@H](CC(C)C)C(=O)N[C@@H]([C@@H](C)CC)C(=O)N(C)CC(=O)N(C)[C@H]3CCCCCN(C3=O)[C@@H](Cc3ccc(C(F)(F)F)cc3)C(=O)N(C)CC(=O)N[C@@H](CCc3cc(F)c(C(F)(F)F)c(F)c3)C(=O)N2C1 [PP0728] |  | 252 nM |  | B (a compound having 3 or more and less than 10 is denoted as B) | B (a compound having 3 or more and less than 10 is denoted as B) |  |  |
| CCCN1C(=O)[C@@H]2CCN2C(=O)[C@H](C)N(C)C(=O)[C@H]([C@@H](C)CC)NC(=O)[C@H](CC(C)C)N(C)C(=O)C[C@@H](C(=O)N2CCOCC2)N(C)C(=O)[C@H](C2CCCC2)N(C)C(=O)C2(CCC2)NC(=O)[C@@H]2C[C@@H](OCC)CN2C(=O)[C@H](CCc2ccc(C(F)(F)F)c(Cl)c2)NC(=O)CN(C)C(=O)[C@@H]1Cc1ccc(C(F)(F)F)cc1 [PP0406] ([NMeL]I[NMeA][Aze][NPrPhe(4-CF3)][Sar][hPhe(3-Cl-4-CF3)][Hyp](Et)[Ac4c][NMeGly(cPent)][NMeD]-Morpholide; lactam N-11) |  | 2.5 nM |  | B (a compound having 3 or more and less than 10 is denoted as B) | C (A compound having a KD ratio of 0.1 or more and less than 3 is denoted as C) |  |  |
| CCCN1C(=O)[C@@H]2CCN2C(=O)[C@H](C)N(C)C(=O)[C@H]([C@@H](C)CC)NC(=O)[C@H](CC(C)C)N(C)C(=O)C[C@@H](C(=O)N2CCC2)N(C)C(=O)[C@H](C2CCCC2)N(C)C(=O)C2(CCCC2)NC(=O)[C@@H]2CCCN2C(=O)[C@H](CCc2ccc(C(F)(F)F)c(Cl)c2)NC(=O)CN(C)C(=O)[C@@H]1Cc1ccc(C(F)(F)F)cc1 [PP0181] ([NMeL]I[NMeA][Aze][NPrPhe(4-CF3)][Sar][hPhe(3-Cl-4-CF3)]P[Ac5c][NMeGly(cPent)][NMeD]-{Azetidin(1-yl)}; lactam N-11) | B (a compound having 3 or more and less than 10 is denoted as B) | 1.5 nM | C (A compound having a KD ratio of 0.1 or more and less than 3 is denoted as C) |  |  |  |  |
| CC[C@H](C)[C@@H]1NC(=O)[C@H](CC(C)C)N(C)C(=O)C[C@@H](C(=O)N(C)C)N(C)C(=O)[C@H](C2CCCC2)N(C)C(=O)C2(CCC2)NC(=O)[C@@H]2C[C@H](C)CN2C(=O)[C@H](CCc2cc(F)c(C(F)(F)F)c(F)c2)NC(=O)CN(C)C(=O)[C@H](Cc2ccc(C)cc2)N2CC/C=C\C[C@@H](C2=O)N(C)C(=O)CN(C)C1=O [PP1864] |  | 10.2 nM |  |  |  | B (a compound having 3 or more and less than 10 is denoted as B) | A (a compound having 10 or more and less than 20 is denoted as A) |
